Consider 2 compounds from ChEMBL document CHEMBL1151487, “DHPMP: a novel group I specific metabotropic glutamate receptor agonist” (Bioorg Med Chem Lett, 1996).

pEC50: −log10 of the molar value.

One experiment is filed under the species Cavia porcellus. Briefly: Compound was evaluated for inhibition of forskolin-stimulated cAMP generation at Group II and Group III mGluRs. Type of experiment: functional.
Experiment [1] is described as follows: Compound was evaluated for its activity at group I mGluRs for the generation of [3H]inositol phosphate using [3H]inositol pre-labelled guinea-pig cerebral cortex slices. The format is tissue-based, Cavia porcellus.

`NC(c1cc(O)cc(O)c1)[PH](=O)O` (stereo not drawn) had a pEC50 in the experiment listed under Cavia porcellus of 5.68. Moreover, the “Log EC50” value in experiment [1] was -4.56.

Regarding `N[C@H](C(=O)O)c1cc(O)cc(O)c1`, in experiment [1], the “Log EC50” value was -4.9.
